Measurements reported in BindingDB's records for patent US20250326732 (Pretzel Therapeutics, 2025).

Biological target: DNA-directed RNA polymerase, mitochondrial (Homo sapiens, UniProt O00411)
Assay: Biological/Biochemical Evaluation
Description: The ability of some compounds of the present invention to inhibit POLRMT were determined in a homogeneous TR-FRET Assay using high-throughput screening in a 384-well plate format. […] Detection of the product is facilitated by hybridization of two DNA-oligonucleotide probes to specific and adjacent sequences within the RNA product sequence. Upon annealing of the probes, two fluorophores are coupled directly to an acceptor nucleotide probe (ATTO647, 5′), or introduced via a coupled streptavidin with a biotinylated donor nucleotide probe (Europium cryptate) that is brought into sufficient proximity to serve as a fluorescence-donor-acceptor pair. […] The DNA template is restriction linearized proximal to the promotor 3′-end (pUC-LSP). […] No nucleotide triphosphate mix is added to negative control samples. Microplates with compounds to be tested in the assay are prepared from 10 mM compound stocks in 100% DMSO, equal amounts of DMSO without any compound are added to positive control and negative control samples.

DNA-directed RNA polymerase, mitochondrial, sequence (O00411 whole entry): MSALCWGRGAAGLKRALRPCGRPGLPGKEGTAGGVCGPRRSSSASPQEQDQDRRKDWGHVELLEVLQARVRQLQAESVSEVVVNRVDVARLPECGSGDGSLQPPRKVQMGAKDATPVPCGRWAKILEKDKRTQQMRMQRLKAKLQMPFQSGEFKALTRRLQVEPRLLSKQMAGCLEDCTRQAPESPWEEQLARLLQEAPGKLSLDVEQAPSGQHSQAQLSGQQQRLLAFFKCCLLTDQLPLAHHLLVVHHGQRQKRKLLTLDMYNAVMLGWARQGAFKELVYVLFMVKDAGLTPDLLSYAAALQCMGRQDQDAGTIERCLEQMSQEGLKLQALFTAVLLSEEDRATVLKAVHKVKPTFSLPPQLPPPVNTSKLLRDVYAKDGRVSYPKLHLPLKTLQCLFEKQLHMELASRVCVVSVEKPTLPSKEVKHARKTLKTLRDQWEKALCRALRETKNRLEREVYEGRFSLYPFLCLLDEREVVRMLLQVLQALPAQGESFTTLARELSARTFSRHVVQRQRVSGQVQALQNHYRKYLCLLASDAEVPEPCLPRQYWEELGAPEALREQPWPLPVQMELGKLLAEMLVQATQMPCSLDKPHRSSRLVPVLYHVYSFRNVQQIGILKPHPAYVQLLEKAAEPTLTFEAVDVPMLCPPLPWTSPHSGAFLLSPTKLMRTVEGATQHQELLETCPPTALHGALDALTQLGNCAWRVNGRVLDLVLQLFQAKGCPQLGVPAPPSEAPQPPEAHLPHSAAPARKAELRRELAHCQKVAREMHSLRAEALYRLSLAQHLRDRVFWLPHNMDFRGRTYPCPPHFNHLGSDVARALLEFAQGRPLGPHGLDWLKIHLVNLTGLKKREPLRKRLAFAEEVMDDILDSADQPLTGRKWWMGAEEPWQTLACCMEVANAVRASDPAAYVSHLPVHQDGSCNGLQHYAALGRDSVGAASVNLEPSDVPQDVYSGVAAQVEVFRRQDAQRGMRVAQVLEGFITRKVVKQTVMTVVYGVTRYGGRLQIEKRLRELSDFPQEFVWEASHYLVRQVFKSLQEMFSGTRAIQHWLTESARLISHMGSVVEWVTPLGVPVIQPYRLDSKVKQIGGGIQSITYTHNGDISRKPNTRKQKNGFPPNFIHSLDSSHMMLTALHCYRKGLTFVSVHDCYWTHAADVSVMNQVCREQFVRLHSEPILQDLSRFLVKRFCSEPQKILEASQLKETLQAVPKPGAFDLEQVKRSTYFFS

Structure (SMILES) | IC50 [nM]
COC=C(Cc1ccc2c(-c3ccccc3C)cc(=O)oc2c1)C(N)=O [US20250326732, Example 208] | 3000
COC=C(Nc1ccc2c(-c3ccccc3)cc(=O)oc2c1)C(N)=O [US20250326732, Example 198] | 2000
COC=C(Cc1ccc2c(-c3ccccc3C)cc(=O)oc2c1)C(N)=O [US20250326732, Example 207] | 17000
CN(C=CC(N)=O)c1ccc2c(-c3ccc(F)cc3Cl)cc(=O)oc2c1 [US20250326732, Example 137] | 900
C=C(Nc1ccc2c(-c3ccccc3C)cc(=O)oc2c1)C(N)=O [US20250326732, Example 189] | 900

Further lines, results first:

IC50 [nM] | Structure (SMILES)
300 | CC(=Cc1ccc2c(-c3ccccc3C)cc(=O)oc2c1)C(=O)N(C)C [US20250326732, Example 64]
6000 | CNC(=O)C(C)=Cc1ccc2c(-c3ccccc3C)cc(=O)oc2c1 [US20250326732, Example 67]
500 | CNC(=O)C(C)=Cc1ccc2c(-c3ccccc3C)cc(=O)oc2c1 [US20250326732, Example 66]
17000 | CC(=Cc1ccc2c(-c3ccccc3C)cc(=O)oc2c1)C(=O)N(C)C [US20250326732, Example 65]
600 | CC(=Cc1ccc2c(-c3ccccc3C)cc(=O)oc2c1)C(N)=O [US20250326732, Example 68]
